Results taken from patent publication US10028931B2, “Synergistic compositions for treating microbial infections” (UNIVERSITY OF ROCHESTER, priority 2014, dated 2018).
Values after ≈ are worked out from the molar mass of the structure shown. Values joined by “and” are separate entries in the source; they are usually repeats but may differ in a detail not shown here. Identical values can stand only once. Like-named read-outs stand apart in the source and are kept apart here.

Columns and labels:
[1] = molecular target: T1, S. aureus RNase P (RnpA+rnpB) (Staphylococcus aureus, UniProt P0A0H5); assay: RNase P activity assay (precursor tRNA processing); type: biochemical
T1 sequence (P0A0H5 1-117): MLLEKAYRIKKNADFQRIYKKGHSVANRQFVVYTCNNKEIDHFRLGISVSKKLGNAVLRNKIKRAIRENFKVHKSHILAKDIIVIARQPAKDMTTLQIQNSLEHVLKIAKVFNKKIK
Summary of the method: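 Reconstituted RnpA+rnpB (1.25 pmol) processed 10 pmol heat-denatured ptRNATyr for 15 min at 37 °C in low-salt (5 mM MgCl2) or high-salt (100 mM MgCl2, 800 mM NH4Cl) Tris pH 8.0 buffer with inhibitor or DMSO. Mature tRNATyr quantified by urea-PAGE densitometry, expressed as % of DMSO control.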

Staphylococcus aureus = assay: Antimicrobial activity of ointment / petroleum jelly suspensions (FIG. 2, Panel A); type: cell-based; details: subinhibitory concentration in petroleum jelly, S. aureus
Excerpt: The addition of an RnpA inhibitor, such as RNPA2000, to mupirocin ointment (Teva Pharmaceuticals USA (North Wales, Pa.)) improved the antimicrobial efficacy of the ointment and is also effective against mupirocin resistant S. aureus. […] See FIG. 2, Panel A, upper left picture. […] See FIG. 2, Panel A, upper right picture.

[2] = test system: Staphylococcus aureus strain UAMS-1; assay: Antimicrobial susceptibility testing (MIC, broth microdilution); type: cell-based; details: S. aureus UAMS-1, Mueller Hinton broth, 37° C.
Summary of the method: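 Broth microdilution in Mueller Hinton broth, 37 °C for 18 h, with about 1×10^5 CFU of strain UAMS-1 per well and doubling compound concentrations from 0 to 256 μg mL−1. The endpoint was the lowest concentration without visible growth. Wells at or above that level were plated and counted for bactericidal activity.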

S. aureus strain UAMS-1 = assay: Fractional Inhibitory Concentration testing with mupirocin; type: cell-based; details: combined with mupirocin, S. aureus UAMS-1, Mueller Hinton broth, 18 hours; synergistic FIC≤0.5
Method: The RNase P inhibitors described herein were tested for Fractional Inhibitory Concentration (FIC) in the presence of mupirocin. FIC testing was performed to determine the combined effects of mupirocin and the RnpA inhibitors as described herein. Individual wells of a 96-well microtiter plate were inoculated with 1×10^5 CFU of S. aureus strain UAMS-1 in a Mueller Hinton broth. Each row of the plate contained increasing concentrations of RNPA1000 or RNPA2000 (two-fold increments; 0, 0.004, 0.008, 0.016, 0.03, 0.06, 0.125, 0.25, 0.5, 1, 2, or 4×MIC), whereas each column contained increasing concentrations of the indicated antibiotic (two-fold increments; 0, 0.06, 0.125, 0.25, 0.5, 1, 2, or 4×MIC). Plates were incubated for 18 hours at 37° C., and growth was detected by the unaided eye. The FIC was determined using the following formula: (MIC of Drug A in Combination/MIC of Drug A Alone)+(MIC of Drug B in Combination/MIC of Drug B Alone)=FIC. A synergistic interaction was defined as an FIC value≤0.5, no interaction as an FIC of 0.5-4, or an antagonistic interaction FIC>4.

RnpA = molecular target: T2, RnpA (Staphylococcus aureus, UniProt P0A0H5); assay: RnpA mRNA degradation activity assay; type: biochemical; details: RnpA mRNA degradation, gel densitometry; read-out: RnpA IC50
T2 sequence (P0A0H5 1-117): T1 sequence (P0A0H5 1-117)
Summary of the method: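 Total S. aureus RNA (1 μg) or in vitro transcribed spa mRNA (1 pmol) was incubated with 20 pmol RnpA plus compound for 15–30 min at 37° C in 50 mM Tris-HCl pH 8.0, 2 mM NaCl, 2 mM MgCl2. RNA was resolved on denaturing formaldehyde-agarose gels and quantified by densitometry. Percent inhibition is relative to RNA-alone and RnpA+DMSO controls.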

[3] = test system: RNase P-mediated tRNA processing; assay: Precursor tRNA processing within bacterial cells (FIG. 1, Panel B); type: cell-based
Excerpt: Mupirocin is a generically available antibiotic that inhibits isoleucyl tRNA synthetase in bacterial cells. The enzyme charges tRNA molecules, allowing them to participate in protein translation. RnpA is an enzyme, which together with the ribozyme, rnpB, forms RNase P riboprotein complex that prepares precursor tRNA molecules for charging (it works upstream of tRNA synthetase in the tRNA processing pathway).

CC(C)c1ccc(OCC(=O)NNC(=S)NC(=O)c2ccco2)cc1 [RNPA2000]
precursor tRNA processing in vitro ([1]; FIG. 1, Panel A): inhibits precursor tRNA processing
IC50 ([1]; ptRNATyr processing, gel densitometry, read-out: RNase P IC50): 140 µM and 300 µM
antimicrobial properties in petroleum jelly (Staphylococcus aureus): no antimicrobial properties
MIC ([2]; 18 hours, listed as MC-220000): 8 µg/mL (≈ 22.1 µM)
MIC ([2]; Staphylococcus aureus, UAMS1, 18 h, read-out: MIC): 16 µg/mL (≈ 44.3 µM)
FIC with Mupirocin (S. aureus strain UAMS-1): 0.44
IC50 (RnpA): 275 µM and 180 µM
precursor tRNA processing within bacterial cells [3]: inhibits precursor tRNA processing
